In PMC7283271, “ADP binding by the Culex quinquefasciatus mosquito D7 salivary protein enhances blood feeding on mammals” (Nature Communications, 2020):

Key:
Assay type in all cases: binding
CxD7L1 [1] = molecular target: T1, CxD7L1 (Culex quinquefasciatus, UniProt A0A1S4K3K8); test: crystal structure ([…] Å) and ITC; set-up: gene D7L1; mature protein
Target sequence in this assay (A0A1S4K3K8 17-311): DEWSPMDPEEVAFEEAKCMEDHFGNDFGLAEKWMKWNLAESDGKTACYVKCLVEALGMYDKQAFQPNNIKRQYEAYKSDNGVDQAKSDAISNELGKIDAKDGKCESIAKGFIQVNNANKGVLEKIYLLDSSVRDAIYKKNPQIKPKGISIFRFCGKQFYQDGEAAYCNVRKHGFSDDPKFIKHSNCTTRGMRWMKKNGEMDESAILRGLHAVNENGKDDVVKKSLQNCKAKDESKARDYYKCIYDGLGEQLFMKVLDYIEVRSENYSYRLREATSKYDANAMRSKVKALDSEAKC

CxD7L1 [2] = molecular target: T1, CxD7L1; test: ITC; set-up: gene D7L1; mature protein, C-terminal 6x-His, HEK293
Target sequence in this assay (A0A1S4K3K8 17-311 limits assumed): as the sequence (A0A1S4K3K8 17-311) above

CxD7L2 = molecular target: T2, CxD7L2 (Culex quinquefasciatus, UniProt B0X6Z1); test: ITC
T2 construct: gene D7L2; full-length mature protein, C-terminal 6x-His, HEK293
T2 sequence (B0X6Z1 21-313 limits assumed): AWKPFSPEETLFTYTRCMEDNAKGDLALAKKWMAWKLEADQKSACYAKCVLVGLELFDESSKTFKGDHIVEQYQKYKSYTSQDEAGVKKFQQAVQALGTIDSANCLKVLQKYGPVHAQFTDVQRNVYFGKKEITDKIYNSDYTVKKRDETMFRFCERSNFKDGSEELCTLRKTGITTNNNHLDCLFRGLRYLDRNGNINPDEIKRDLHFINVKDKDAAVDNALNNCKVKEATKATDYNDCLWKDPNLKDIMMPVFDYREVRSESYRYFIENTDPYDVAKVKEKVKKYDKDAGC

## Nc1ncnc2c1ncn2[C@@H]1O[C@H](COP(=O)(O)OP(=O)(O)O)[C@@H](O)[C@H]1O [ADP]
CxD7L1 [1]
  Kd: 0.0327 µM

## Nc1ncnc2c1ncn2[C@@H]1O[C@H](CO)[C@@H](O)[C@H]1O [Adenosine]
CxD7L1 [2]
  Kd: 0.313 µM

## CNC[C@H](O)c1ccc(O)c(O)c1 [Epinephrine]
CxD7L2
  Kd: 0.226 µM
